Laboratory results taken from patent US7223751B2, “Sulfonamide derivatives, intermediate thereof, its preparation methods, and pharmaceutical composition comprising the same” (Kolon Ind. Inc., priority 2001, dated 2007).

What was measured:
MMP-13 = MMP-13 (Homo sapiens, UniProt P45452); test: MMP inhibiting activity, fluorescence assay; assay type: biochemical; settings: read-out: Enzyme inhibiting constant IC50 MMP-13
Procedure: (§1) Inhibitory activities of all the enzymes were measured similarly to the MMP-2 activity measuring method shown below. Prior to measuring, proMMP-2 was treated with 1 mM p-aminophenyl mercuricacetate at 37° C. for 45 minutes to activate it. The ProMMP-9 was activated to an enzyme with MMP-3, and stored at −80° C. until used.
(§2) MMP activities were measured by fluorescence assay by changing a microtiter plate formate according to the reported method (Knight, C. G., Willenbrock, F., Murphy, G. A., FEBS Lett. 1992, 296, 263-266). On a dynatech MicroFLUOR plate, a buffer solution comprising 50 Mm Tris-HCl pH 7.5, 10 mM CaCl2, 0.15 M NaCl, 0.05% Brij, and 1-8 μM of a substrate (Mca-Pro-Leu-Gly-Leu-Dpa-Ala-Arg-NH2), and various concentrations of inhibitors were introduced, and it was reacted with activated enzymes at 37° C. for 20-30 minutes. Reaction was terminated by putting the reactant in 50 mM EDTA, and then fluorescence was measured with a spectrofluorometer attached to a microplate reader (λex 328 nm, λ em 393 nm). The inhibiting activity degree was indicated by an IC50 value, which is a concentration inhibiting activity by 50% compared to the control.

MMP-2 = target: T1, MMP-2 (Homo sapiens, UniProt P08253); test: MMP inhibiting activity, fluorescence assay; assay type: biochemical; settings: read-out: Enzyme inhibiting constant IC50 MMP-2
T1 sequence (P08253 110-660): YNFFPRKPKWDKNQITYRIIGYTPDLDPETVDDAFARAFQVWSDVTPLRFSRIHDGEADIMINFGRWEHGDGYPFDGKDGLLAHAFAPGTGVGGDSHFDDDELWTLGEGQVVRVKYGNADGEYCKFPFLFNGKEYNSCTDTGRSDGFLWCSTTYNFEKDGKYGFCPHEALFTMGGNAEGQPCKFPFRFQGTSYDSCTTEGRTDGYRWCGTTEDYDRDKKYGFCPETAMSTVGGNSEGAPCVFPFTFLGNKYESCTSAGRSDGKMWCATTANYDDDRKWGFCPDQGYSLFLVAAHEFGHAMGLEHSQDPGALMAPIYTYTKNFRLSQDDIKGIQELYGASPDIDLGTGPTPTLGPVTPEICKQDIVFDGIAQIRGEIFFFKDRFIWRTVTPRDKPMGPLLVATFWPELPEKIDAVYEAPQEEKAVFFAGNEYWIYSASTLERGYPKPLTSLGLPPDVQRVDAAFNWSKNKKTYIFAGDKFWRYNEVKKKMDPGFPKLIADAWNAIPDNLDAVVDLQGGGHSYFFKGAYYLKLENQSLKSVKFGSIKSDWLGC
Procedure: as §1, §2

MMP-1 = target: T2, MMP-1 (Homo sapiens, UniProt P03956); test: MMP inhibiting activity, fluorescence assay; assay type: biochemical; settings: read-out: Enzyme inhibiting constant IC50 MMP-1
T2 sequence (P03956 100-469): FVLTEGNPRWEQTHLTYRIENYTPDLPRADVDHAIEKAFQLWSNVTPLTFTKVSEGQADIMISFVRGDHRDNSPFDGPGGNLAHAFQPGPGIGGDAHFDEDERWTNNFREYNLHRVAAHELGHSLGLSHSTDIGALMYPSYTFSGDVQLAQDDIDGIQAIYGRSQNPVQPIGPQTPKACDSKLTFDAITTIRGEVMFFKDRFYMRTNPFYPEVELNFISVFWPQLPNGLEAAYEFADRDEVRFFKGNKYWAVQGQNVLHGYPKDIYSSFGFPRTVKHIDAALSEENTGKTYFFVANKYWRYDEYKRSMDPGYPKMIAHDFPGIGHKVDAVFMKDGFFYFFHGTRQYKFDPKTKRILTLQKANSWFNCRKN
Procedure: as §1, §2

[1] = test system: HUVEC (human umbilical vein endothelial cell) cells; test: Tube formation activity on matrigel; assay type: cell-based; design: key: −: control; ±: tube almost resembles control; +: inhibition; ++: significant inhibition; +++: complete inhibition; settings: 16-24 hours
Procedure: In a culture flask previously coated with gelatin, HUVEC (human umbilical vein endothelial cell) cells cultured with a M199 medium (containing 20% FBS, 3 ng/ml bFGF, 100 μg/ml heparin) were treated with trypsin/EDTA, and then number of cells are counted so that number of cells may be 2×10^4 cells/well in a 96-well plate previously coated with matrigel. Samples were then added and cultured in a CO2 culture medium at 37° C. for 16-24 hours.

MMP-9 = MMP-9 (Homo sapiens, UniProt P14780); test: MMP inhibiting activity, fluorescence assay; assay type: biochemical; settings: read-out: Enzyme inhibiting constant IC50 MMP-9
Procedure: as §1, §2

MMP-14 = MMP-14 (Homo sapiens, UniProt P50281); test: MMP inhibiting activity, fluorescence assay; assay type: biochemical; settings: read-out: Enzyme inhibiting constant IC50 MMP-14
Procedure: as §1, §2

Sequence of MMP-9 (P14780 107-707 limits assumed, species assumed): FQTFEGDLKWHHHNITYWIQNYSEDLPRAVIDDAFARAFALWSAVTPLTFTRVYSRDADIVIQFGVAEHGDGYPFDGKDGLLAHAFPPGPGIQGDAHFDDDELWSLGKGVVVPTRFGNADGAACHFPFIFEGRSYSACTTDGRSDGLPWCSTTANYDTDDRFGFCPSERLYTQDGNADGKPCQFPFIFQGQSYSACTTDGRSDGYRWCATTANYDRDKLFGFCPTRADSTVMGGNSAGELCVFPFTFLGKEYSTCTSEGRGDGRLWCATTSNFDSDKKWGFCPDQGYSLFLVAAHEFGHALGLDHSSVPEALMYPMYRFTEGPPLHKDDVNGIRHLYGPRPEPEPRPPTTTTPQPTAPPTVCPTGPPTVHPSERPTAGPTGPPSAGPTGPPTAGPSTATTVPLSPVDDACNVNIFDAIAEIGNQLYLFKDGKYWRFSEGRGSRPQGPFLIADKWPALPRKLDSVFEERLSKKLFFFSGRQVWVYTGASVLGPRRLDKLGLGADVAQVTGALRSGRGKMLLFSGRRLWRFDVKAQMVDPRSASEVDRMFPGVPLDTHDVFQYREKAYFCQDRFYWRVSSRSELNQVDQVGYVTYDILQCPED

Compound	IC50 (MMP-13)	IC50 (MMP-2)	IC50 (MMP-1)	Tube Formation ([1]; concentration 5 μM)	Tube Formation ([1]; concentration 50 μM)	Tube Formation ([1]; concentration 100 μM)	IC50 (MMP-9)	Tube Formation ([1]; concentration 0.5 μM)	IC50 (MMP-14)
CCCCCCCCC=CCCCCCCCCN1CC(C(=O)O)N(S(=O)(=O)c2ccc(-c3ccc(Br)cc3)cc2)CC1=O (stereo not drawn) [Example 53, 1-(4′-Bromo-biphenyl-4-sulfonyl)-4-octadec-9-enyl-5-oxo-piperazine-2-carboxylic acid]	> 10000 nM	220 nM	> 10000 nM						
4-Butyl-1-(4-methoxy-benzenesulfonyl)-5-oxo-piperazine-2-hydroxamate [Example 19]	14 nM	15 nM	47 nM	+	+	++			
COc1ccc(S(=O)(=O)N2CC(=O)N(CCc3ccccn3)CC2C(=O)NO)cc1 (stereo not drawn) [Example 15]	> 10000 nM	> 10000 nM	> 10000 nM	+	+	++			
CCCCCCCCN1CC(C(=O)NO)N(S(=O)(=O)c2ccc(-c3ccc(Br)cc3)cc2)CC1=O (stereo not drawn) [Example 32, 1-(4′-Bromo-biphenyl-4-sulfonyl)-4-octyl-5-oxo-piperazine-2-hydroxamate]	7 nM	2 nM	16 nM	++	+++	+++	1.3 nM		
CCCCCCCCCCCCN1CC(C(=O)O)N(S(=O)(=O)c2ccc(-c3ccc(Br)cc3)cc2)CC1=O (stereo not drawn) [Example 39, 1-(4′-Bromo-biphenyl-4-sulfonyl)-4-dodecyl-5-oxo-piperazine-2-carboxylic acid]	2350 nM	567 nM	8270 nM	−	+			−	
4-Benzyl-1-(4-methoxy-benzenesulfonyl)-5-oxo-piperazine-2-hydroxamate [Example 7]	18 nM	7 nM	52 nM	±	+		25 nM		36 nM
1-(4-Methoxy-benzenesulfonyl)-4-methyl-5-oxo-piperazine-2-hydroxamate [Example 25]	16 nM	3 nM	82 nM	−	−	+			

Continued by falling IC50 (MMP-2), values first:

IC50 (MMP-13)	IC50 (MMP-2)	IC50 (MMP-1)	Compound	Tube Formation ([1]; concentration 5 μM)	Tube Formation ([1]; concentration 50 μM)	Tube Formation ([1]; concentration 100 μM)	IC50 (MMP-9)	Tube Formation ([1]; concentration 0.5 μM)	IC50 (MMP-14)
2460 nM	140 nM	5400 nM	CCCCCCCCCCN1CC(C(=O)O)N(S(=O)(=O)c2ccc(-c3ccc(Br)cc3)cc2)CC1=O (stereo not drawn) [Example 47, 1-(4′-Bromo-biphenyl-4-sulfonyl)-4-decyl-5-oxo-piperazine-2-carboxylic acid]	++	+++			++	
2100 nM	80 nM	2430 nM	CCCCCCCCN1CC(C(=O)O)N(S(=O)(=O)c2ccc(-c3ccc(Br)cc3)cc2)CC1=O (stereo not drawn) [Example 33, 1-(4′-Bromo-biphenyl-4-sulfonyl)-4-octyl-5-oxo-piperazine-2-carboxylic acid]	+	++	+++			
82 nM	11 nM	95 nM	CCCCCCN1CC(C(=O)O)N(S(=O)(=O)c2ccc(-c3ccc(Br)cc3)cc2)CC1=O (stereo not drawn) [Example 45, 1-(4′-Bromo-biphenyl-4-sulfonyl)-4-hexyl-5-oxo-piperazine-2-carboxylic acid]	++	++			++	
1130 nM	9 nM	114 nM	CCCCN1CC(C(=O)O)N(S(=O)(=O)c2ccc(-c3ccc(Br)cc3)cc2)CC1=O (stereo not drawn) [Example 49, 1-(4′-Bromo-biphenyl-4-sulfonyl)-4-butyl-5-oxo-piperazine-2-carboxylic acid]	++	++			±	
19 nM	5 nM	29 nM	O=C(O)C1CN(CCCCCCO)C(=O)CN1S(=O)(=O)c1ccc(-c2ccc(Br)cc2)cc1 (stereo not drawn) [Example 51, 1-(4′-Bromo-biphenyl-4-sulfonyl)-4-(6-hydroxy-hexyl)-5-oxo-piperazine-2-carboxylic acid]						
	4 nM		COc1ccc(S(=O)(=O)N2CC(=O)NCC2C(=O)NO)cc1 (stereo not drawn) [Example 5, 1-(4-Methoxy-benzenesulfonyl)-5-oxo-piperazine-2-hydroxamate]	±	+	++	12.4 nM		28 nM
24 nM	3 nM	18 nM	CCCCCCCCN1CC(C(=O)O)N(S(=O)(=O)c2ccc(NC(=O)c3ccc(Cl)cc3)cc2)CC1=O (stereo not drawn) [Example 60, 1-[4-(4-chloro-benzoylamino)-benzenesulfonyl]-4-octyl-5-oxo-piperazine-2-carboxylic acid]	++	++		3.2 nM	+	
